The record followed here is PMC11550998, “Novel 5-HT7 receptor antagonists modulate intestinal immune responses and reduce severity of colitis” (American Journal of Physiology - Gastrointestinal and Liver …, 2024).

Each structure is given as a SMILES string. pKi: −log10 of the molar value.

The pKi is the negative decadic logarithm of the Ki, by convention in mol/L.

Series [1] deals with T1, H1 (Homo sapiens, UniProt P35367).
T1 construct: NIMH Psychoactive Drug Screening Program (PDSP), assay service
Kind of series: PDSP selectivity profiling, H1. The class given is binding. The method, then:
(§1) In vitro assessments of MC-170073, MC-20078, and MC-230079 activity at the following targets were determined using the assay systems available through the Psychoactive Drug Screening Program (PDSP). Detailed protocols for each assay are available at https://pdsp.unc.edu/pdspweb/?site=assays. Receptors 5-HT1A, 5-HT1B, 5-HT1D, 5-HT1E, 5-HT2A, 5-HT2B, 5-HT2C, 5-HT3, 5-HT5A, 5-HT6, 5-HT7, α1A, α1B, α1D, α2A, α2B, α2C, benzodiazepine, β1, β2, β3, GABA-A, H1, H2, H3, H4, M1, M2, M3, M4, M5, δ-opioid, κ-opioid, and µ-opioid and transporters dopamine, norepinephrine, and serotonin were evaluated.

For series [2], the target named is T2, α2B (Homo sapiens, UniProt P18089).
T2 construct: NIMH Psychoactive Drug Screening Program (PDSP), assay service
As to the kind of experiment: PDSP selectivity profiling, α2B. It is filed as binding. How it is done:
as §1

Series [3] deals with T3, α2C (Homo sapiens, UniProt P18825).
T3 construct: NIMH Psychoactive Drug Screening Program (PDSP), assay service
As to the kind of experiment: PDSP selectivity profiling, α2C. The class given is binding. The method, then:
as §1

A short description of series [4]: Microsomal stability assay, mouse liver microsomes. The class given is in vitro ADME. The following applies: 37°C, NADPH regenerating system, read-out: T1/2 MLM. The method, then:
Test compounds were assessed for microsomal stability by incubating at 37°C in the presence of mouse or human liver microsomes and an NADPH regenerating system as described by Yang et al. ([16]). Microsomal protein content was adjusted to ensure accurate rates of substrate consumption. Analysis was performed by LC-MS/MS analysis.
Background: Liver microsomes are vesicles of endoplasmic reticulum, rich in cytochrome P450 enzymes.

Series [5] has as its target T4, D3 (Homo sapiens, UniProt P35462).
T4 construct: NIMH Psychoactive Drug Screening Program (PDSP), assay service
Kind of series: PDSP selectivity profiling, D3. It is filed as binding.

Series [6] deals with CD4+CD45RBhigh T cell-induced colitis. Kind of series: CD4+CD45RBhigh T cell-induced chronic colitis model. The class given is in vivo, Rag1-/- mice. An excerpt: C57BL/6 (Taconic, Cambridge City, IN) for the DSS model of colitis, as well as C57BL/6 and Rag1^−/− mice (Jackson Laboratory, Bar Harbor, ME) for the T-cell transfer model, were kept in sterilized, filter-topped cages under specific pathogen-free conditions upon arrival and fed autoclaved food. Male mice aged 8–10 wk were used for all experiments. Mice were acclimatized for 7 days before the start of any experiments. All experiments were approved by the animal ethics committee of McMaster University and conducted under Canadian guidelines for animal research.
Colitis was induced in Rag1^−/− mice by adoptive transfer of fluorescence-activated cell sorting (FACS)-sorted CD4^+CD45RB^high T cells, as described previously ([18]). Briefly, CD4^+ T cells were isolated from splenocytes of healthy C57BL/6 mice by the EasySep Mouse Naive CD4^+ T Cell Isolation Kit (StemCell Technology, Vancouver, Canada). Naive CD4^+ T cells were then labeled with PE-cy7-conjugated anti-mouse CD3 (BioLegend, San Diego, CA), allophycocyanin (APC)-conjugated anti-mouse CD4 (BD Biosciences), and fluorescein isothiocyanate (FITC)-conjugated anti-mouse CD45RB (BD Biosciences, Mississauga, Canada). CD4^+CD45RB^high T cells were sorted using a FACS Aria II flow cytometer (BD Biosciences, Mississauga, Canada). Cell viability was assessed using a Trypan blue assay before injection. Recipients were administered ∼5 × 10^5 sorted T cells via intraperitoneal injection.
For acute DSS-induced colitis, C576BL/6 mice were treated with MC-170073 (10 mg/kg of body wt) or vehicle (10% DMSO in normal saline) via intraperitoneal injection once daily for 6 days, starting 1 day before the beginning of DSS. In a separate experiment, C57BL/6 mice were orally administered with MC-230078 (10 mg/kg) or vehicle twice daily for 5 days, starting from the beginning of DSS. For chronic DSS-induced colitis, C57BL/6 mice were treated with MC-170073 (10 mg/kg ip) or vehicle once daily for 6 days, starting 1 day before the beginning of the third cycle. Last, for CD4^+CD45RB^high T cell-induced chronic colitis, reconstituted Rag1^−/− mice were orally administered MC-230078 (5 mg/kg or 10 mg/kg) or a vehicle twice daily for 10 days starting from week 6 post-reconstitution of T cells.
Disease activity index (DAI) is a combined score of weight loss, stool consistency, and fecal bleeding and was blindly assessed using a previously published scoring system ([19]). This scoring system was defined as follows: weight loss: 0 = no loss; 1 = 1–5%; 2 = 5–10%; 3 = 10–20%; 4 = 20%+; stool, 0 = normal; 2 = loose stool; 4 = diarrhea; and bleeding: 0 = no blood; 2 = hemoccult positive (Hemoccult II; Beckman Coulter, Fullerton, CA); and 4 = gross blood (blood around anus). DAI was measured across all days of DSS treatment. Macroscopic damage scores were blindly scored using a previously published scoring system for DSS-induced colitis ([19]).
Colonic myeloperoxidase (MPO) levels were measured following a published protocol ([19]). Briefly, colonic tissue samples were homogenized in ice-cold 50 mmol·L^−1 potassium phosphate buffer containing 0.5% hexadecyl trimethyl ammonium bromide (pH = 6.0) (Sigma). Homogenates were centrifuged, the supernatant was removed, and an aliquot was then added to a solution containing potassium phosphate buffer, O-dianisidine, and hydrogen peroxide (Sigma-Aldrich). The absorbance was measured at 450 nm by a spectrophotometer (model EL808, BioTek). MPO level was expressed in units per milligram of tissue, where 1 U is defined as the quantity of enzyme able to convert 1 μmol hydrogen peroxide to water per minute at room temperature.
Segments of the proximal colon were washed with PBS, fixed in 10% neutral-buffered formalin, washed with ethanol, and embedded in paraffin. […]

The mark [7] stands for this setting: 10 mg/kg orally twice daily 10 days, vs vehicle.

T1 sequence (P35367 whole entry): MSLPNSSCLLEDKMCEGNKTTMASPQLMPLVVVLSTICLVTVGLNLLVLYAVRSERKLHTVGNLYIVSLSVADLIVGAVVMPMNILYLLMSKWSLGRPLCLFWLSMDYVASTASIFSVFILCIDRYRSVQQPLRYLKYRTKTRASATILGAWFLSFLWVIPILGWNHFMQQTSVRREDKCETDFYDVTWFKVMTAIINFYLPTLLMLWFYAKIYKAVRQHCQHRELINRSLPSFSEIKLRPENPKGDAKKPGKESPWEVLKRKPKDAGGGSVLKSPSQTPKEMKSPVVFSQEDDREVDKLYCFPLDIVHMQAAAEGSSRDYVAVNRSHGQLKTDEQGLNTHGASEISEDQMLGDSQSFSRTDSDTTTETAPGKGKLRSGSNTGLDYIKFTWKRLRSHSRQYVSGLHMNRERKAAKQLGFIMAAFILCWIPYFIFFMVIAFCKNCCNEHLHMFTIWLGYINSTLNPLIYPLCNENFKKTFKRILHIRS
T4 sequence (P35462 whole entry): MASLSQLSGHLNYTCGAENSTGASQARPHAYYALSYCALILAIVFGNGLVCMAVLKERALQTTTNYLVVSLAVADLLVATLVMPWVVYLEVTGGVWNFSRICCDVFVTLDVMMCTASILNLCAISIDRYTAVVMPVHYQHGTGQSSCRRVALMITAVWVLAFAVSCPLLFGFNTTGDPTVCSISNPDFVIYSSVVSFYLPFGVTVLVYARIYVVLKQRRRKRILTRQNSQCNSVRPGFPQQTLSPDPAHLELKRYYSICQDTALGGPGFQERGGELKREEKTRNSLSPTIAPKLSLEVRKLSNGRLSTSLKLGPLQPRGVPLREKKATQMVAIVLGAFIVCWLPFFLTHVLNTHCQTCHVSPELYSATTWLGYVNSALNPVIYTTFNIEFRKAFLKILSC
T3 sequence (P18825 whole entry): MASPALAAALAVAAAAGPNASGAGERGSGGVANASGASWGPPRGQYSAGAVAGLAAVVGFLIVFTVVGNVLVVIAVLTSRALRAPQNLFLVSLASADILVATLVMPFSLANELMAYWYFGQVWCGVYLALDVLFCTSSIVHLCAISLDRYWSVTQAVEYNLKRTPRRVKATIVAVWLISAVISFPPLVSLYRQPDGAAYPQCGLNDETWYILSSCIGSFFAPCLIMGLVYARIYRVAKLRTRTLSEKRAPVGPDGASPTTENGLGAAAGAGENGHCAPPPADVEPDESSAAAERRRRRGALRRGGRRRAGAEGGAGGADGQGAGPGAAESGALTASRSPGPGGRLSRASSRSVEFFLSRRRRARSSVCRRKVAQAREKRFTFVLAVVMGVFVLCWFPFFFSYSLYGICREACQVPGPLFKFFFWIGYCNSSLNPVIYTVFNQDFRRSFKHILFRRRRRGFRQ
T2 sequence (P18089 whole entry): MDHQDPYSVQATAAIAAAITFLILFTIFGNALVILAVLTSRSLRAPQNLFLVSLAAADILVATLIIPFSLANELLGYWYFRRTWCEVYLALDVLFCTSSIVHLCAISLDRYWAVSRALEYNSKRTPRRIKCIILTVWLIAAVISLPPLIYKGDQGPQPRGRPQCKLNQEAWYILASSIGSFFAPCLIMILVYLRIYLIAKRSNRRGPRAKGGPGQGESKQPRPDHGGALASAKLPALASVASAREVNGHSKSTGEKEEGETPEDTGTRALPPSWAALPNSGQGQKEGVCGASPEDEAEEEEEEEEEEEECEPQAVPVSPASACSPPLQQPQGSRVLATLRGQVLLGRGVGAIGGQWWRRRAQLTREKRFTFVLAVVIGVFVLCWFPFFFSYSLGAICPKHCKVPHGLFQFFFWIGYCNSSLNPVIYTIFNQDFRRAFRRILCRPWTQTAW

Regarding `CCC1(CC)CC(CCN2CCN(c3ccc(O)cc3)CC2)OC1=O` (stereo not drawn) [MC-170073], the negative-log Ki (pKi) was 6.04 in series [1], 6.31 in series [2], 5.44 in series [3] and 5.91 in series [5]. Besides, in series [4], the half-life was determined as 17 min.
Take `CCC1(CC)C[C@@H](CCN2CCN(c3ccc(O)cc3)CC2)OC1=O` [MC-230078]: in series [6] (10 mg/kg orally twice daily 10 days from week 6, from day 4 of dosing, vs vehicle), the DAI result is given as “significant reduction”. In series [6] (setting [7]), the “colonic IFN-γ” value was “significant downregulation”, the “colonic IL-1β” value was “significant downregulation”, the “colonic IL-6” value is “significant downregulation” and the “colonic MPO levels” value is listed as “significant decrease”. Further, in series [6] (setting [7]), the “colonic TNF-α” value is listed as “significant downregulation” and the macroscopic damage entry is “reduced”. In series [6] (between the two drug-treated groups (5 and 10 mg/kg)), the body weight change result was “no difference”. Moreover, in series [6] (higher dosage (10 mg/kg) orally twice daily 10 days), the histological damage scores result is on record as “significantly lower”. The “colonic 5-HT levels” value in series [6] (treated vs vehicle-treated mice) was “no differences”.
